Laboratory results published in paper PMC10135574, “N-Carbamoylputrescine Amidohydrolase of Bacteroides thetaiotaomicron, a Dominant Species of the Human Gut Microbiota” (Biomedicines, 2023).

Molecular target: T1, NCPAH-(His)6; N-carbamoylputrescine amidohydrolase (NCPAH) (Bacteroides thetaiotaomicron, UniProt Q8A9E0)
T1 construct: gene BT_0875; full-length, C-terminal His6 tag kept (pET23b NdeI/XhoI, plasmid pMSK106), expressed in E. coli BL21(DE3)
T1 sequence (Q8A9E0 1-294): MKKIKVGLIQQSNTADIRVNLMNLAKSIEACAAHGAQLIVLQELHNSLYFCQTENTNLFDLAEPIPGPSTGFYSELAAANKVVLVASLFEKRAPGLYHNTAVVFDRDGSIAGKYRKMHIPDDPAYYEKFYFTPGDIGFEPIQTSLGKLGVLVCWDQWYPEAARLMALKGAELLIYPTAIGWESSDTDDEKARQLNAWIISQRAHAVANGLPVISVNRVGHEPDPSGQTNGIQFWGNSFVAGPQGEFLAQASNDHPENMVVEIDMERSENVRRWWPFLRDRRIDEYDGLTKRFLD
Assay: HPLC of putrescine formed
Type: biochemical
Settings: read-out: % inhibition at 1 mM

inhibition at 1000 µM [%]	SMILES
> 80	N=C(N)NCCCCN [agmatine]
> 80	NCCCCNCCCN [spermidine]

SMILES	inhibition at 1000 µM [%]
NCCCCN [putrescine]	~50
